Patent publication US20150335016A1, “Herbicidal Composition Comprising a Cornexistin” (BASF SE, priority 2012, published 2015)

Key:
Assay in all cases: Greenhouse post-emergence herbicidal test
Type in all cases: in vivo
[1] = tested on: ERICA (Erigeron canadensis)
Experimental: (§1) The culture containers used were plastic pots containing loamy sand with approximately 2-3.0% of organic matter. The seeds of the test plants were sown separately for each species.
(§2) For the post-emergence treatment, the test plants were grown to a plant height of from 3 to 15 cm, depending on the plant habit, and only then treated with the active compounds which had been suspended or emulsified in water. To this end, the test plants were either sown directly, and grown in the same containers, or they were first grown separately as seedlings and transplanted into the test containers a few days prior to treatment.
(§3) Depending on the species, the plants were kept at 10-25° C. and 20-35° C., respectively.
(§4) The test period extended over 2 to 4 weeks. During this time, the plants were tended and their response to the individual treatments was evaluated.
(§5) Evaluation was carried out using a scale from 0 to 100. 100 means no emergence of the plants, or complete destruction of at least the above-ground parts, and 0 means no damage or normal course of growth. A good herbicidal activity is given at values of at least 70, and very good herbicidal activity is given at values of at least 85.
(§6) In the examples below, using the method of S. R. Colby (1967) “Calculating synergistic and antagonistic responses of herbicide combinations”, Weeds 15, p. 22ff., the value E, which is expected if the activity of the individual active compounds is only additive, was calculated.
(§7) where • X=percent activity using active compound A at an application rate a; • Y=percent activity using active compound B at an application rate b; • E=expected activity (in %) by A+B at application rates a+b.
(§8) If the value found experimentally is higher than the value E calculated according to Colby, a synergistic effect is present.
(§9) For preparation of the mixtures herbicides A were used in form of an aqueous solution comprising 22.5% by weight of the respective herbicide A. The herbicides B were used in form of the respective commercially available formulations as identified below. If appropriate, the adjuvant DASH® HC was added to the mixtures.
(§10) The respective mixtures of active ingredients were introduced into the spray liquor used for applying the active compound. In the examples, the solvent used was water.

[2] = tested on: ABUTH (Abutilon theophrasti)
Experimental: as §1, §2, §3, §4, §5, §6, §7, §8, §9, §10

[3] = tested on: AMBEL (Ambrosia artemisiifolia)
Experimental: as §1, §2, §3, §4, §5, §6, §7, §8, §9, §10

[4] = tested on: POLPE (Polygonum persicaria)
Experimental: as §1, §2, §3, §4, §5, §6, §7, §8, §9, §10

[5] = tested on: BRAPP (Urochloa platyphylla)
Experimental: as §1, §2, §3, §4, §5, §6, §7, §8, §9, §10

[6] = tested on: COMBE (Commelina benghalensis)
Experimental: as §1, §2, §3, §4, §5, §6, §7, §8, §9, §10

[7] = tested on: SETFA (Setaria faberi)
Experimental: as §1, §2, §3, §4, §5, §6, §7, §8, §9, §10

[8] = tested on: AMARE (Amaranthus retroflexus)
Experimental: as §1, §2, §3, §4, §5, §6, §7, §8, §9, §10

[9] = tested on: CHEAL (Chenopodium album)
Experimental: as §1, §2, §3, §4, §5, §6, §7, §8, §9, §10

[10] = tested on: DIGSA (Digitaria sanguinales)
Experimental: as §1, §2, §3, §4, §5, §6, §7, §8, §9, §10

[11] = tested on: PANMI (Panicum miliaceum L.)
Experimental: as §1, §2, §3, §4, §5, §6, §7, §8, §9, §10

[12] = Example 1, post-emergence, B.17 62.5 g/ha a.i.
[13] = Example 4, post-emergence, B.30 12.5 g/ha a.i.
[14] = Example 2, post-emergence, B.49 75 g/ha a.i.
[15] = Example 5, post-emergence, B.55 2.5 g/ha a.i.
[16] = Example 1, post-emergence; a1) 125 g/ha a.i.
[17] = Example 2, post-emergence; a1) 62.5 g/ha a.i.
[18] = Example 5, post-emergence; a1) 31.25 g/ha a.i.
[19] = Example 4, post-emergence; a1) 125 g/ha a.i.

In the case of COCc1cnc(C2=NC(C)(C(C)C)C(=O)N2)c(C(=O)O)c1 (stereo not shown) [B.3, imazamox], the “herbicidal activity against ERICA found” value ([1]; Example 3, post-emergence, heading: +1% by weight DASH HC, B.3 9 g/ha a.i.) is reported as 90%.

In the case of CC(C)N1C(=O)c2ccccc2NS1(=O)=O [B.17, bentazone], the “herbicidal activity against ABUTH found” value [2, 12] is reported as 40%, the “herbicidal activity against AMBEL found” value [3, 12] is reported as 30% and the “herbicidal activity against ERICA found” value [1, 12] is reported as 70%. For the same molecule, the “herbicidal activity against POLPE found” value [4, 12] was 55%.

For Cn1nc(C(F)(F)F)c(CS(=O)(=O)C2=NOC(C)(C)C2)c1OC(F)F [B.30, pyroxasulfone], the “herbicidal activity against BRAPP found” value [5, 13] was 50%, the “herbicidal activity against COMBE found” value [6, 13] was 45% and the “herbicidal activity against SETFA found” value [7, 13] was 40%.

In the case of CCc1cccc(CC)c1N(COC)C(=O)CCl [B.49, alachlor], the “herbicidal activity against AMARE found” value [8, 14] is reported as 30%, the “herbicidal activity against CHEAL found” value [9, 14] is reported as 0% and the “herbicidal activity against DIGSA found” value [10, 14] is reported as 40%. For the same molecule, the “herbicidal activity against PANMI found” value [11, 14] was 45%.

With COC(=O)c1ccccc1S(=O)(=O)NC(=O)Nc1nc(C)nc(OC)n1 [B.55, metsulfuron-methyl] the “herbicidal activity against AMBEL found” value [3, 15] was 75% and the “herbicidal activity against CHEAL found” value [9, 15] was 40%.

In the case of C/C=C1/CC2=C(C(=O)OC2=O)[C@H](CCC)[C@H](O)C(=O)C[C@@H]1O [a1), cornexistin], the “herbicidal activity against ABUTH found” value [2, 16] is reported as 50%, the “herbicidal activity against AMARE found” value [8, 17] is reported as 50% and the “herbicidal activity against AMBEL found” value [3, 16] is reported as 65%. The “herbicidal activity against AMBEL found” value [3, 18] was 80%, the “herbicidal activity against BRAPP found” value [5, 19] was 50% and the “herbicidal activity against CHEAL found” value [9, 17] was 90%. The “herbicidal activity against CHEAL found” value [9, 18] was 70%, the “herbicidal activity against COMBE found” value [6, 19] was 55% and the “herbicidal activity against DIGSA found” value [10, 17] was 55%. The “herbicidal activity against ERICA found” value [1, 16] was 40%, the “herbicidal activity against ERICA found” value ([1]; Example 3, post-emergence, heading: +1% by weight DASH HC; a1) 62.5 g/ha a.i.) was 60% and the “herbicidal activity against PANMI found” value [11, 17] was 80%. The “herbicidal activity against POLPE found” value [4, 16] was 60% and the “herbicidal activity against SETFA found” value [7, 19] was 80%.
